Data from ChEMBL document CHEMBL1201862, “PubChem BioAssay data set” (2004).
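Cultured in 96-well plates, cells were exposed to test compound for 48 hours across five concentrations. GI50: concentration for 50% inhibition of growth.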 Activity calls are given as the source filed them. Rule as the data show it: active = GI50 up to about 1.1 µM and inactive = higher.

Columns and labels:
Test in all cases: NCI anticancer screen, dose series, 48 h
[1] = tested on: OVCAR-4
[2] = tested on: OVCAR-5
[3] = tested on: NCI/ADR-RES
[4] = tested on: CCRF-CEM
[5] = tested on: T47D
[6] = tested on: SF-295
[7] = tested on: K562
[8] = tested on: LOX IMVI
[9] = tested on: MDA-N
[10] = tested on: HCC 2998
[11] = tested on: SR
[12] = tested on: PC-3
[13] = tested on: RPMI-8226
[14] = tested on: RXF 393
[15] = tested on: COLO 205
[16] = tested on: SNB-75
[17] = tested on: M14
[18] = tested on: Malme-3M
[19] = tested on: SK-MEL-5

Structure (SMILES) | GI50 [1] | GI50 [2] | GI50 [3] | GI50 [4] | GI50 [5] | GI50 [6] | GI50 [7] | GI50 [8] | GI50 [9] | GI50 [10] | GI50 [11] | GI50 [12] | GI50 [13] | GI50 [14] | GI50 [15] | GI50 [16] | GI50 [17] | GI50 [18] | GI50 [19]
C=CC(=O)C#Cc1cnc(OC)nc1OC | 20.8 µM (inactive) | 16.1 µM (inactive) | 31.3 µM (inactive) | 0.515 µM (active) | 21.7 µM (inactive) | 41.4 µM (inactive) | 1.38 µM (inactive) | 5.46 µM (inactive) | 16.4 µM (inactive) | 19 µM (inactive) | 2.49 µM (inactive) | 19.8 µM (inactive) | 1.6 µM (inactive) | 25.2 µM (inactive) | 3.83 µM (inactive) | 12.6 µM (inactive) | 14.9 µM (inactive) | 15.8 µM (inactive) | 15.2 µM (inactive)
CC1=C(C(=O)N[C@@H](CC(C)C)C(=O)O)N2C(=O)[C@@H](NC(=O)[C@@H](N)Cc3ccccc3)[C@H]2SC1 | > 100 µM (inactive) | > 100 µM (inactive) | > 100 µM (inactive) | > 100 µM (inactive) | > 100 µM (inactive) | > 100 µM (inactive) | > 100 µM (inactive) | > 100 µM (inactive) | > 100 µM (inactive) | > 100 µM (inactive) | > 100 µM (inactive) | > 100 µM (inactive) | > 100 µM (inactive) | > 100 µM (inactive) | > 100 µM (inactive) | > 100 µM (inactive) | > 100 µM (inactive) | > 100 µM (inactive) | > 100 µM (inactive)
CC(C#N)(c1ccccc1)N(CCc1ccccc1)C(=O)Oc1ccccc1 (stereo not drawn) | 30.7 µM (inactive) | > 100 µM (inactive) | > 100 µM (inactive) | > 100 µM (inactive) | > 100 µM (inactive) | > 100 µM (inactive) | > 100 µM (inactive) | > 100 µM (inactive) | > 100 µM (inactive) | > 100 µM (inactive) | > 100 µM (inactive) | > 100 µM (inactive) | > 100 µM (inactive) | 26.7 µM (inactive) | > 100 µM (inactive) | 25.9 µM (inactive) | > 100 µM (inactive) | > 100 µM (inactive) | > 100 µM (inactive)
Cc1ccc(Nc2cc(=O)[nH]c(=O)[nH]2)cc1CS | > 100 µM (inactive) | > 100 µM (inactive) | > 100 µM (inactive) | > 100 µM (inactive) | > 100 µM (inactive) | > 100 µM (inactive) | > 100 µM (inactive) | > 100 µM (inactive) | > 100 µM (inactive) | > 100 µM (inactive) | > 100 µM (inactive) | > 100 µM (inactive) | > 100 µM (inactive) | 89.9 µM (inactive) | > 100 µM (inactive) | > 100 µM (inactive) | > 100 µM (inactive) | > 100 µM (inactive) | > 100 µM (inactive)
C[C@@]12C(=O)OC(=O)[C@]1(C)[C@H]1CC[C@@H]2O1 [CANTHARIDIN] | 2.58 µM (inactive) | 2.45 µM (inactive) | 6.5 µM (inactive) | 1.19 µM (inactive) | 1.68 µM (inactive) | 1.37 µM (inactive) | 2.3 µM (inactive) | 2.23 µM (inactive) | 2.91 µM (inactive) | 1.53 µM (inactive) | 2.61 µM (inactive) | 0.279 µM (active) | 2.08 µM (inactive) | 0.484 µM (active) | 0.427 µM (active) | 0.472 µM (active) | 1.7 µM (inactive) | 1.34 µM (inactive) | 0.973 µM (active)
O=C1c2c(Br)sc(Br)c2[C@H]2NC(=S)O[C@@H]12 | 17.1 µM (inactive) | 19.2 µM (inactive) | 21.4 µM (inactive) | 2.15 µM (inactive) | 21.8 µM (inactive) | 20.6 µM (inactive) | 2.98 µM (inactive) | 13.9 µM (inactive) | 16 µM (inactive) | 20.5 µM (inactive) | 2.41 µM (inactive) | 14.5 µM (inactive) | 7.38 µM (inactive) | 13.3 µM (inactive) | 13.4 µM (inactive) | 19.1 µM (inactive) | 14.3 µM (inactive) | 15.7 µM (inactive) | 15.8 µM (inactive)
O=C(/C=C(\Nc1ccccc1O)c1ccc(Br)cc1)C(Cl)(Cl)Cl | 5.16 µM (inactive) | 12.1 µM (inactive) | 11.4 µM (inactive) | 15.4 µM (inactive) | 3.95 µM (inactive) | 6.12 µM (inactive) | 14.2 µM (inactive) | 17.9 µM (inactive) | 4.69 µM (inactive) | 2.1 µM (inactive) | 13.7 µM (inactive) | 2.47 µM (inactive) | 1.79 µM (inactive) | 5.51 µM (inactive) | 6.95 µM (inactive) | 13.7 µM (inactive) | 15.5 µM (inactive) | 15.2 µM (inactive) | 14.2 µM (inactive)
